Measurements: patent US5288716A, “Use of pyridoxine derivatives in the prevention and treatment of hyperlipidaemia and atherosclerosis” (priority 1987, dated 1994)
Counter-ions that a name gives are not always drawn.

How the values were obtained:
[1] = Tolerance of vitamin B6 and two derivatives in mice after a single oral dose of 5 g; settings: mouse, in vivo, 5000 mg, single oral dose of 5 g, read-out: % death
Text: 3. Tolerance of vitamin B6 and two derivatives in mice after a single oral dose of 5 g

lipid metabolism [2] = settings: earlier experiments on animals; cited from earlier work
serum lipids = test: Effect of vitamin B6 and a derivative thereof on serum lipids in rats after 12 weeks of treatment; type: in vivo; settings: diet 2.5% cholesterol plus 0.25% cholic acid, 79 mg pyridoxine/kg or equimolar dose
Protocol: 1. Effect of vitamin B6 and a derivative thereof on serum lipids in rats after 12 weeks of treatment
Group A=rats fed with normal diet without cholesterol
Group B=rats fed with a diet containing 2.5% cholesterol plus 0.25% cholic acid
Group C=as group (B) plus 79 mg pyridoxine/kg bodyweight
Group D=as group (B) plus an equimolar (to pyridoxine) dose of a pyridoxamine derivative
20 animals per group; means ±SD; difference to group B in %

lipid metabolism [3] = test: Pyridoxine in rats (own experiments, with a positive control); type: in vivo; settings: 79 mg/kg body weight
Text: This was explicitly queried in DE 24 61 742 C2 (column 3, lines 35 ff). […] Pyridoxine was used separately in earlier experiments on animals in conjunction with lipid metabolism (see Frolova, J. A.: Vitamin B6 and lipid metabolism; Vopr. med. Khim. 89, 18. 339-346 (1972)). Its effect, however, is weak.

[4] = tested on: aortae of the rabbits from the heart to the bifurcation; test: Aorta changes in hyperlipaemic rabbits after 10 weeks of treatment (120 mg/kg), relative to non-treated rabbits; type: in vivo
Protocol: The values are mean values of 18 rabbits and measured relative to a basis of non-treated rabbits.
The control group received a diet comprising 2% of cholesterol. In the group under treatment each rabbit received additionally 120 mg pyridoxamine.2 HCl/kg body weight. At the end of the test the aortae of the rabbits from the heart to the bifurcation were prepared and examined: […]

aorta of rabbits = test: Effect of vitamin B6 and the equimolar dose of a derivative thereof on the calcium and lipid content of the aorta of rabbits after 10 weeks; type: in vivo; settings: control diet 2% cholesterol, pyridoxamine 2HCl 78 mg/kg, pyridoxine HCl 62 mg/kg
Text: 2. Effect of vitamin B6 and the equimolar dose of a derivative thereof on the calcium and lipid content of the aorta of rabbits after 10 weeks of treatment as compared to a control group fed with a diet containing 2% cholesterol

[5] = 2% cholesterol diet, 120 mg/kg body weight, 10 weeks, mean of 18, relative to non-treated

Structure (SMILES) | mortality [1] | calcium in aorta, % difference to control (aorta of rabbits) | cholesterol in aorta, % difference to control (aorta of rabbits) | dry weight of aorta, % difference to control (aorta of rabbits) | total lipids in aorta, % difference to control (aorta of rabbits) | triglycerides in aorta, % difference to control (aorta of rabbits) | also measured
Cc1ncc(CO)c(C=O)c1O [Pyridoxal] | 100% |  |  |  |  |  | 
Cc1ncc(CO)c(CN)c1O [Pyridoxamine] | 0% |  |  |  |  |  | 
Cc1ncc(CO)c(CO)c1O [Pyridoxine] | 30% |  |  |  |  |  | effect on lipid metabolism (lipid metabolism [2]): weak; LDL + VLDL-Cholesterol, difference to group B (serum lipids): -10%; Total serum cholesterol, difference to group B (serum lipids): -4%; LDL + VLDL-Cholesterol (serum lipids; mean (SD in next line)): 150; Total serum cholesterol (serum lipids; mean (SD in next line)): 204; effect in rats (lipid metabolism [3]): ineffective
Cc1ncc(CO)c(CN)c1O [pyridoxamine.2 HCl] |  | -24% | -21% | -7% | -15% | -15% | decrease of calcium in aorta [4, 5]: 31%; decrease of cholesterol in aorta [4, 5]: 27%; decrease of lipids (total) in aorta [4, 5]: 18%; decrease of triglycerides in aorta [4, 5]: 17%; decrease of changes characteristic for atherosclerosis (thickening of the walls, lipid- and calcium uptake) ([4]; after 10 weeks): substantial decrease
Cc1ncc(CO)c(CO)c1O [pyridoxine · HCl] |  | +21% | -2% | -1% | -3% | +6% | 
